Reference: patent US5306620A, “Antibodies that bind to a ligand-induced binding site on integrin and induce integrin activation” (The Scripps Research Institute, priority 1990, dated 1994)
Residues, ends and D or L forms follow the SMILES beside them.

How the values were obtained:
αIIb β3 on A5 cells [1] = biological target: T1, αIIb β3 on A5 cells (Homo sapiens, UniProt P05106+P08514); experiment: PAC1-binding assay (FACS) on A5 cells; assay type: cell-based; conditions: for stimulation of PAC1 binding to A5 cells by platelet agonists: ADP 10 to 50 uM, thrombin 1 to 5 units/ml, epinephrine 4 to 200 uM, phorbol myristate acetate 5 to 500 nm, ionomycin 5 to 200 nM
T1 construct: expressed in transfected cells
T1 sequence (P08514 32-887 limits assumed): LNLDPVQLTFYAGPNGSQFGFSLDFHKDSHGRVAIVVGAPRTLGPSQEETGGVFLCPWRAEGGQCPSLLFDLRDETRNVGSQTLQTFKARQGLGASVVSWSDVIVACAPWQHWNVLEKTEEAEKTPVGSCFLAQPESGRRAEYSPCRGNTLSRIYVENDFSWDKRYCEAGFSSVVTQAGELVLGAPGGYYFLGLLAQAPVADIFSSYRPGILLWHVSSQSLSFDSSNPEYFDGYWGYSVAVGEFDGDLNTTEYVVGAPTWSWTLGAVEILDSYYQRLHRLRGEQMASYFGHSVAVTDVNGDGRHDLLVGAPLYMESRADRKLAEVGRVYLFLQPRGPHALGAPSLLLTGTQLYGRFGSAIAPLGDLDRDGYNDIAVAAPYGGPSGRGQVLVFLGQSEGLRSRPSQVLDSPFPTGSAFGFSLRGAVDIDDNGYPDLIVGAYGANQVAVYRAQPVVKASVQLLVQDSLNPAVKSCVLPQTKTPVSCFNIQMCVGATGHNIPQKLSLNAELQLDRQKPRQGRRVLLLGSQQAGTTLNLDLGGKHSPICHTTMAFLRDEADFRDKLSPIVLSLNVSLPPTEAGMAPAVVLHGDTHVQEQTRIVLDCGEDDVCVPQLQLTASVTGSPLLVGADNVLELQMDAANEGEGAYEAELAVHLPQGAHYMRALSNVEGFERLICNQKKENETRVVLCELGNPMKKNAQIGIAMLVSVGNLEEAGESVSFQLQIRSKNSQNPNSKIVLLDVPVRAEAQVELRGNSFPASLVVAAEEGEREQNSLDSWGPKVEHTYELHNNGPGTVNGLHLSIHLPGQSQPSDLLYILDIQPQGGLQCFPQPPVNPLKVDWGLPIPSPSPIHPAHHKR
T1 sequence (P08514 891-1039 partner limits assumed): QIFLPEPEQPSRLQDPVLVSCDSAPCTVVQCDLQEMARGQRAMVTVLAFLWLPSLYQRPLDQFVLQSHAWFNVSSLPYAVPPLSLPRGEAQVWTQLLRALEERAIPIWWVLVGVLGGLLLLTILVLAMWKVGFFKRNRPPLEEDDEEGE
T1 sequence (P05106 27-788): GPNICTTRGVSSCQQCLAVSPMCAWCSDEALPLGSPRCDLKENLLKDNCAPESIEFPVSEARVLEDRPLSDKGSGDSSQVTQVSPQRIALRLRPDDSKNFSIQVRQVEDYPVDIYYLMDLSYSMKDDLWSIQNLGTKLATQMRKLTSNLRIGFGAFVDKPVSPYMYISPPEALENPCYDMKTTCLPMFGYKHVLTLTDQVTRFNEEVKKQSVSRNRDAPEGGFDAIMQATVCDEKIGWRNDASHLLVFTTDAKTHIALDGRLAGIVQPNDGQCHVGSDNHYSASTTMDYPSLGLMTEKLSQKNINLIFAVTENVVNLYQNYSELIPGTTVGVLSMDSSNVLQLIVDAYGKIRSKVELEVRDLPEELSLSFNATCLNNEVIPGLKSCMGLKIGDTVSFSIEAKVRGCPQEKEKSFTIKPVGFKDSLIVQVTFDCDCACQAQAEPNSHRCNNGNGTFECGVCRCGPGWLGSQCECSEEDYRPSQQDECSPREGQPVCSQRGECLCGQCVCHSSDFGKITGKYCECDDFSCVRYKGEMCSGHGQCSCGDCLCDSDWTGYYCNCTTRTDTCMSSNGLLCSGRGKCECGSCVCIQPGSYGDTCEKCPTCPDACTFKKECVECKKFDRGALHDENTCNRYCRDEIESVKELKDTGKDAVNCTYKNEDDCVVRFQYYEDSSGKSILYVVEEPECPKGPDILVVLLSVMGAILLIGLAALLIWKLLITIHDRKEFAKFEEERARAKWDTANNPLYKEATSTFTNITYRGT
Experimental: (§1) Antibody binding to cells was analyzed by flow cytometry, also referred to as fluorescence-activated cell sorting (FACS). Cells for flow cytometric analysis were harvested with 3.5 mM EDTA and an aliquot of 5×10^5 cells was pelleted, resuspended in media or Tyrodes buffer containing a specific first antibody, and incubated for 20 minutes on ice with or without peptide ligands. Cells were pelleted, washed once, and incubated for 20 minutes with the second antibody, FITC-conjugated goat anti-mouse IgG (Tago, Burlingame, Calif.). Cells were then pelleted, resuspended in 0.5 ml media or Tyrodes and analyzed on a FACS IV analyzer (Becton-Dickinson, San Jose, Calif.).
To that end, PAC1 antibody was fluoresceinated with FICT as described by Taub et al., J. Biol. Chem., 264:259-265 (1989) to form FITC-PAC1 and used directly in flow cytometry. Briefly, 5×10^5 cells were harvested and resuspended to 50 ul in Tyrodes buffer [Frelinger et al., J. Biol. Chem., 265:6346-6352 (1990)]containing 10 ug/ml of FITC-PAC1 in the presence or absence of additional agonists. After a 30 minute incubation at 37 degrees, the samples were diluted to 0.5 ml with Tyrodes and analyzed by flow cytometry as described in Example 7.
To evaluate the capacity of a monoclonal antibody to activate (i.e., to increase specific ligand binding affinity of) the integrin GPIIb-IIIa, an assay was developed that measures PACT binding to GPIIb-IIIa bearing cells using the FACS analysis as described in Example 7.
In the PAC1-binding assay for integrin-activating antibody, the activating antibody was admixed with an integrin binding cell at a concentration of about 5 uM antibody. For GPIIb-IIIa, a suspension of cells was prepared as in Example 9, activating antibody was admixed at 5 uM and the admixture was maintained for 20 minutes on ice. Thereafter FITC-PAC1 was added as described in Example 9 and the FACS protocol followed as in Example 9 to measure PAC1 binding.

[2] = biological target: T2, αIIb β3 on fixed platelets (Homo sapiens, UniProt P05106+P08514); experiment: FITC-PAC1 binding to formaldehyde fixed platelets; assay type: cell-based; conditions: 0.1% paraformaldehyde; PMA 50 nM, thrombin 1 unit/ml
T2 construct: To fix platelets, blood from a normal donor was centrifuged at 1,000 rpm; endogenous in cells; host or cells: platelets from blood of a normal donor, fixed with 0.1% paraformaldehyde
T2 sequence (P08514 32-887 limits assumed): as the sequence (P08514 32-887 limits assumed) above
T2 sequence (P08514 891-1039 partner limits assumed): as the sequence (P08514 891-1039 partner limits assumed) above
T2 sequence (P05106 27-788): as the sequence (P05106 27-788) above
Experimental: The data described in Examples 10 and 11 established that Fab fragments of the activating antibodies P41 or Ab62 activate A5 cells and platelets to express αIIb β3 dependent receptors for fluid phase Fg and PAC1. To determine if this activation required intracellular signal transduction events, the capacity of these Fabs to induce PACI binding to formaldehyde fixed platelets was measured.
To fix platelets, blood from a normal donor was centrifuged at 1,000 rpm for 20 minutes and the resulting platelet rich plasma incubated with 2 ug/ml PGE1 and 1 mM theophylline for 15 minutes at room temperature followed by a 15 minute room temperature incubation with 0.1% paraformaldehyde. Fixed or normal platelets were then analyzed for FITC-PAC1 binding as described above in Example 9 in the presence of platelet agonists, or activating antibody P41.

αIIb β3 on A5 cells [3] = biological target: T1, αIIb β3 on A5 cells; experiment: Soluble 125I-fibrinogen binding to A5 cells; assay type: cell-based
Experimental: FIG. 4 illustrates the equilibrium binding of soluble fibrinogen (Fg) to Ab-62 stimulated (activated) A5 cells when measured as in Example 10. A5 cells at a concentration of 10^6 per ml were admixed with 6 uM of Sepharose-purified AB-62 and maintained at 22 C. for 30 minutes to activate the integrin. Iodinated Fg was then admixed in varying concentrations from 0.01 to 1 nM. After a 60 minute maintenance period, the bound ligand was separated from free ligand by centrifugation through 0.3 ml of 20% sucrose. The amount of radiolabelled ligand associated with the cell pellet was determined by gamma detection. Saturable binding was measured in three different experiments and plotted versus the input Fg concentration to obtain an averaged profile. A Scatchard replot of the binding data was made and is shown in the insert.
An independent measure of integrin activation was made by detecting the ability of a cell containing the integrin to bind soluble fibrinogen (Fg) that had been labelled with ^125 I. Fg was isolated and labelled with ^125 I by standard methods as described by Marguerie et al., J. Biol. Chem., 255:154-161 (1980) to form ^125 I-Fg. Thereafter, the binding of ^125 I-Fg to transfected cells was assayed as described previously for platelets [Marguerie et al., J. Biol. Chem., 255:154-161 (1980)]. Binding was initiated by the addition of cells to radiolabelled Fg and incubation at 37 degrees for 30 minutes. Bound ligand was separated from free ligand by centrifugation through 0.3 ml of 20% sucrose and the amount of radiolabelled ligand associated with the cell pellet determined by gamma detection.
Background binding in this assay detected about 30,000 molecules of Fg bound per integrin bearing cell, whereas maximum Ab-62 stimulated A5 cells bound about 95,000 molecules of Fg per cell.
Equilibrium binding of soluble Fg to Ab-62 stimulated (activated) A5 cells was carried out to better characterize Fg binding. […] A5 cells (10^6 per ml) were incubated with 6 uM Sepharose-purified Ab-62 for 30 minutes at 22 C. to activate the integrin. Thereafter ^125 I-Fg was admixed in varying concentrations from 0.01 to 1 nM. After 60 minutes, bound Fg was measured as described above after centrifugation of the cells through sucrose.
Saturable binding was measured in three different experiments and plotted versus the input Fg concentration to obtain average data which is shown in FIG. 4. A Scatchard replot of the binding data was also made and is shown in the inset to FIG. 4. The binding of the various concentrations of Fg to activated A5 cells at steady state was analyzed by use of the "Ligand" computer program. […] There was day to day variation in the quantity of αIIb β3 expressed as measured by the binding of the 2G12 antibody (150,000 to 440,000 sites/cell) as well as in the number of Fg receptors (138,000 to 360,000 sites/cell). The ratio of Fg receptors to αIIb β3 expressed per cell on a given day was 0.83±0.05, thus virtually all of the recombinant αIIb β3 was functional with respect to Fg binding.

GPIIb-IIIa on platelets [4] = biological target: T3, GPIIb-IIIa on platelets (Homo sapiens, UniProt P05106+P08514); experiment: PAC1-binding assay (FACS) on platelets; assay type: cell-based
T3 construct: endogenous in cells; host or cells: platelets
T3 sequence (P08514 32-887 limits assumed): as the sequence (P08514 32-887 limits assumed) above
T3 sequence (P08514 891-1039 partner limits assumed): as the sequence (P08514 891-1039 partner limits assumed) above
T3 sequence (P05106 27-788): as the sequence (P05106 27-788) above
Experimental: as §1
In the PAC1-binding assay for integrin-activating antibody, the activating antibody was admixed with an integrin binding cell at a concentration of about 5 uM antibody.

[5] = biological target: T4, solubilized αIIb β3 from platelets (Homo sapiens, UniProt P05106+P08514); experiment: Solution phase assay: 125I-Fg binding to solubilized αIIb β3; assay type: biochemical
T4 construct: αIIb β3 was solubilized from platelets; endogenous in cells; host or cells: human platelets, octylglucoside lysate
T4 sequence (P08514 32-887 limits assumed): as the sequence (P08514 32-887 limits assumed) above
T4 sequence (P08514 891-1039 partner limits assumed): as the sequence (P08514 891-1039 partner limits assumed) above
T4 sequence (P05106 27-788): as the sequence (P05106 27-788) above
Experimental: To determine if activating antibodies could activate αIIb β3 extracted away f rom the membrane milieu, the activating capacity to stimulate Fg binding in a solution phase was assayed. In this assay, αIIb β3 was solubilized from platelets, incubated in the presence or absence of activating monoclonal antibodies, and then bound to microtiter plates coated with a non-activating monoclonal anti β3 antibody.
The platelet pellet was resuspended and solubilized in ice cold 10 mM Hepes containing 150 mM NaCl, 50 mM octyl-B-D-glucoypyranoside (Calbiochem, La Jolla, Calif.) 1 mm PMSF, 50 ng/ml PGE, 1 mM CaCl2, 1 mM MgCl2, 50 uM leupeptin and 1 mg/ml N-ethylmaleimide (Sigma, St. Louis, Mo.) and centrifuged at 100,000 g for 30 minutes. […] The microtiter wells were incubated at 4 C. overnight, washed twice with a modified Tyrodes-Hepes buffer (2.5 mM Hepes, 150 mM NaCl, 2.5 mM KCl, 1 mM MgCl2, 12 mM NaHCO3, 5.5 mM D-glucose and 1 mg/ml BSA, pH 7.4) containing 50 MM octyl-B-D-glucopyranoside and 0.1 uM activating monoclonal antibody and then twice in Tyrodes-Hepes buffer only to form αIIb β3 -bound microtiter wells. […] Bound radioactivity was counted after 2 washes with Tyrodes-Hepes buffer.

GPIIb-IIIa on platelets [6] = biological target: T3, GPIIb-IIIa on platelets; experiment: 125I-anti-LIBS1 binding to platelets in the presence of fibrinogen; conditions: ADP (10 uM) stimulated platelets, 125I-anti-LIBS1 Fab 0.8 uM, 37 C 30 minutes; read-out: concentration of fibrinogen required for a half-maximal increase in anti-LIBS1 binding
Experimental: FIG. 1 illustrates anti-LIBS1 binding to platelets in the presence of ADP-stimulated fibrinogen as described in Example 4. Gel-filtered platelets (1 ×10^8 platelets/ml) were incubated with ^125 I-labeled anti-LIBS1 and varied concentrations of fibrinogen in the presence (ADP-stimulated) or absence (Control) of ADP (10 uM) for 30 minutes at 37 C. Platelet-bound radioactivity was separated from free by centrifuging the platelets through a layer of sucrose. Results are shown as the average of triplicate determinations +/ - one standard deviation.
Platelet rich plasma (PRP) was prepared as in Example 1A and divided into 2 aliquots. In one aliquot, the platelets were stimulated to express functional GPIIb-IIIa (fibrinogen receptors) by admixture of adenosine diphosphate (ADP) to a 10 uM final concentration to produce ADP-stimulatedplatelets. As a negative control, the second aliquot of PRP received no stimulus to produce non-stimulated platelets.
^125 I-labeled LIBSA (anti-LIBS1) Fab fragments, prepared by usual techniques from the ^125 I-labeled antibodies described in Example 2, were then admixed to a 0.8 uM final concentration with several samples of each of the PRP aliquots in the presence of varying concentrations of fibrinogen. […] The amount of ^125 I-anti LIBS1 associated with the pellet was then determined by gamma counting.

CNC[C@H](O)c1ccc(O)c(O)c1 [epinephrine]
stimulation of PAC1 binding to A5 cells by platelet agonists (αIIb β3 on A5 cells [1]): failed to stimulate

thrombin
stimulation of PAC1 binding to A5 cells by platelet agonists (αIIb β3 on A5 cells [1]): failed to stimulate
PAC1 response after fixation of platelets [2]: completely abrogated

N=C(N)NCCC[C@H](NC(=O)CN)C(=O)NCC(=O)N[C@@H](CCC(=O)O)C(=O)N[C@@H](CO)C(=O)N1CCC[C@H]1C(=O)O [GRGESP] (H-GRGESP-OH)
inhibition of soluble 125I-Fg binding to activated A5 cells (αIIb β3 on A5 cells [3]): not inhibited

CCCCCCCCCCCCCC(=O)O[C@@H]1[C@@H](C)[C@@]2(O)[C@@H](C=C(CO)C[C@]3(O)C(=O)C(C)=C[C@@H]23)[C@@H]2C(C)(C)[C@]12OC(C)=O [phorbol myristate acetate]
stimulation of PAC1 binding to A5 cells by platelet agonists (αIIb β3 on A5 cells [1]): failed to stimulate
PAC1 response after fixation of platelets [2]: completely abrogated

Nc1ncnc2c1ncn2[C@@H]1O[C@H](COP(=O)(O)OP(=O)(O)O)[C@@H](O)[C@H]1O [ADP, adenosine diphosphate]
PAC1 staining of agonist activated platelets (GPIIb-IIIa on platelets [4]; ADP activated platelets, FACS): stained brightly
stimulation of PAC1 binding to A5 cells by platelet agonists (αIIb β3 on A5 cells [1]): failed to stimulate

PAC1
reaction of PAC1 with resting platelets (GPIIb-IIIa on platelets [4]; FITC-PAC1 10 ug/ml, no agonist): did not react
reaction of PAC1 with αIIb β3 in the A5 cell line (αIIb β3 on A5 cells [1]; FITC-PAC1 10 ug/ml, no agonist): did not react

fibrinogen
inhibition of Fg binding to stimulated captured receptor [5]: inhibition
non-saturable binding (αIIb β3 on A5 cells [3]; Ab-62 activated A5 cells): 2.2±0.4×10^-3
receptor concentration (αIIb β3 on A5 cells [3]; Ab-62 activated A5 cells, 10^6 per ml): 2.3 ± 0.3 nM
Fg binding sites per cell (αIIb β3 on A5 cells [3]; Ab-62 activated A5 cells, Ligand program fit): 138,000 sites/cell
reversibility of Fg binding (αIIb β3 on A5 cells [3]; Ab-62 stimulated A5 cells): > 75%
time for Fg binding to reach steady state (αIIb β3 on A5 cells [3]; Ab-62 stimulated A5 cells): ≤ 30 min
number of Fg receptors (αIIb β3 on A5 cells [3]; activated A5 cells, day to day variation): 138,000 to 360,000 sites/cell
ratio of Fg receptors to αIIb β3 expressed per cell (αIIb β3 on A5 cells [3]; on a given day): 0.83±0.05
EC50 (GPIIb-IIIa on platelets [6]): ~700 nM

C[C@H](CCC(=O)O)C[C@H](C)C[C@H](C)C(=O)/C=C(\O)[C@H](C)C[C@H](C)C/C=C/[C@@H](C)[C@@H](O)[C@@H](C)[C@@H](O)C[C@@H]1CC[C@@](C)([C@H]2CC[C@@](C)([C@@H](C)O)O2)O1 [ionomycin]
stimulation of PAC1 binding to A5 cells by platelet agonists (αIIb β3 on A5 cells [1]): failed to stimulate
